How the values were obtained:
Assay type in all cases: in vivo
bulrush [1] = assay: Test Example 1: herbicidal effects in preemergence treatment under submerged conditions; details: dose 2.52 g/a
Method in brief: (§1)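 Alluvial soil flooded to 4 cm depth; barnyardgrass, bulrush and ducksalad sown and 2.5-leaf rice seedlings transplanted. Same day, water-diluted emulsifiable concentrates applied to the water surface at set doses (g/a). Kept at 25–30 °C in greenhouse; effects scored 0–5 by mortality after three weeks.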

ducksalad [2] = assay: as above; details: dose 2.52 g/a
Method in brief: as §1

barnyardgrass [3] = assay: as above; details: dose 2.52 g/a
Method in brief: as §1

velvetleaf [4] = assay: Test Example 3: herbicidal effects in soil treatment
Method in brief: (§2)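 Seeds were sown in sterilized diluvial soil and covered with about 1.5 cm of soil. Compounds, formulated as emulsifiable concentrates and diluted with water, were sprayed evenly over the soil surface at set doses in g/a. Herbicidal effect was scored on a rating scale three weeks later.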

redroot pigweed [5] = assay: as above
Method in brief: as §2

large crabgrass [6] = assay: as above
Method in brief: as §2

Italian ryegrass [7] = assay: as above
Method in brief: as §2

water foxtail [8] = assay: as above
Method in brief: as §2

common ragweed [9] = assay: as above
Method in brief: as §2

common chickweed [10] = assay: as above
Method in brief: as §2

giant foxtail [11] = assay: as above
Method in brief: as §2

wild oat [12] = assay: as above
Method in brief: as §2

barnyardgrass [13] = assay: as above
Method in brief: as §2

posumbu knotweed [14] = assay: as above
Method in brief: as §2

common lambsquater [15] = assay: as above; details: dose 6.3 g/a
Method in brief: as §2

velvetleaf [16] = assay: Test Example 4: herbicidal effect in foliage treatment; details: three weeks after application
Method in brief: (§3)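 Seeds sown in sterilized diluvial soil under ~1.5 cm soil cover and grown 14 days in a greenhouse at 25 to 30° C. Emulsifiable concentrates diluted with water were then sprayed uniformly on foliage at predetermined doses (g/a). Herbicidal effect was scored three weeks after application on a graded evaluation scale.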

redroot pigweed [17] = assay: as above; details: three weeks after application
Method in brief: as §3

large crabgrass [18] = assay: as above; details: three weeks after application
Method in brief: as §3

Italian ryegrass [19] = assay: as above; details: three weeks after application
Method in brief: as §3

water foxtail [20] = assay: as above; details: three weeks after application
Method in brief: as §3

common ragweed [21] = assay: as above; details: three weeks after application
Method in brief: as §3

common chickweed [22] = assay: as above; details: three weeks after application
Method in brief: as §3

beadstraw = assay: as above; details: three weeks after application
Method in brief: as §3

giant foxtail [23] = assay: as above; details: three weeks after application
Method in brief: as §3

wild oat [24] = assay: as above; details: three weeks after application
Method in brief: as §3

barnyardgrass [25] = assay: as above; details: three weeks after application
Method in brief: as §3

posumbu knotweed [26] = assay: as above; details: three weeks after application
Method in brief: as §3

common lambsquater [27] = assay: as above; details: three weeks after application
Method in brief: as §3

bulrush [28] = assay: Test Example 2: herbicidal effects during the vegetation period under submerged conditions; details: treatment during the vegetation period under submerged conditions; dose 2.52 g/a
Method in brief: (§4)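 Barnyardgrass, bulrush and ducksalad were co-sown in alluvial soil flooded to 4 cm and grown in a greenhouse at 25 to 30° C. At the 1- or 2-leaf stage, water-diluted emulsifiable concentrates went onto the water surface at set doses (g/a). Herbicidal effect was scored three weeks later on a graded scale.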

ducksalad [29] = assay: as above; details: treatment during the vegetation period under submerged conditions; dose 2.52 g/a
Method in brief: as §4

barnyardgrass [30] = assay: as above; details: treatment during the vegetation period under submerged conditions; dose 2.52 g/a
Method in brief: as §4

transplanted rice = assay: Test Example 1: preemergence treatment under submerged conditions, effect on crop; details: dose 2.52 g/a
Method in brief: as §1

## CC1OCCN(Cc2ccccc2NS(=O)(=O)C(F)(F)F)C1=O (centres unmarked) [Compound I-4, 2-methyl-4-(2-trifluoromethanesulfonylaminobenzyl)-1,4-oxazinan-3-one]
Bulrush [1]
  B: bulrush, herbicidal effect (evaluation scale 0-5): 5 (mortality of 90% or above (nearly complete death))
Ducksalad [2]
  C: ducksalad, herbicidal effect (evaluation scale 0-5): 5 (mortality of 90% or above (nearly complete death))
Barnyardgrass [3]
  A: barnyardgrass, herbicidal effect (evaluation scale 0-5): 5 (mortality of 90% or above (nearly complete death))
Velvetleaf [4]; dose 6.3 g/a
  I: velvetleaf, herbicidal effect (evaluation scale 0-5): 4 (mortality of at least 70% and less than 90%)
Redroot pigweed [5]; dose 6.3 g/a
  K: redroot pigweed, herbicidal effect (evaluation scale 0-5): 4 (mortality of at least 70% and less than 90%)
Large crabgrass [6]; dose 6.3 g/a
  D: large crabgrass, herbicidal effect (evaluation scale 0-5): 5 (mortality of 90% or above (nearly complete death))
Italian ryegrass [7]; dose 6.3 g/a
  H: Italian ryegrass, herbicidal effect (evaluation scale 0-5): 3 (mortality of at least 40% and less than 70%)
Water foxtail [8]; dose 6.3 g/a
  G: water foxtail, herbicidal effect (evaluation scale 0-5): 5 (mortality of 90% or above (nearly complete death))
Common ragweed [9]; dose 6.3 g/a
  J: common ragweed, herbicidal effect (evaluation scale 0-5): 5 (mortality of 90% or above (nearly complete death))
Common chickweed [10]; dose 6.3 g/a
  N: common chickweed, herbicidal effect (evaluation scale 0-5): 5 (mortality of 90% or above (nearly complete death))
Giant foxtail [11]; dose 6.3 g/a
  E: giant foxtail, herbicidal effect (evaluation scale 0-5): 3 (mortality of at least 40% and less than 70%)
Wild oat [12]; dose 6.3 g/a
  F: wild oat, herbicidal effect (evaluation scale 0-5): 0 (mortality of less than 5% (almost ineffective))
Barnyardgrass [13]; dose 6.3 g/a
  A: barnyardgrass, herbicidal effect (evaluation scale 0-5): 4 (mortality of at least 70% and less than 90%)
Posumbu knotweed [14]; dose 6.3 g/a
  M: posumbu knotweed, herbicidal effect (evaluation scale 0-5): 4 (mortality of at least 70% and less than 90%)
Common lambsquater [15]
  L: common lambsquater, herbicidal effect (evaluation scale 0-5): 5 (mortality of 90% or above (nearly complete death))
Velvetleaf [16]; dose 6.3 g/a
  I: velvetleaf, herbicidal effect: 5 (mortality of 90% or above (nearly complete death))
Redroot pigweed [17]; dose 6.3 g/a
  K: redroot pigweed, herbicidal effect: 3 (mortality of at least 40% and less than 70%)
Large crabgrass [18]; dose 6.3 g/a
  D: large crabgrass, herbicidal effect: 5 (mortality of 90% or above (nearly complete death))
Italian ryegrass [19]; dose 6.3 g/a
  H: Italian ryegrass, herbicidal effect: 2 (mortality of at least 20% and less than 40%)
Water foxtail [20]; dose 6.3 g/a
  G: water foxtail, herbicidal effect: 5 (mortality of 90% or above (nearly complete death))
Common ragweed [21]; dose 6.3 g/a
  J: common ragweed, herbicidal effect: 4 (mortality of at least 70% and less than 90%)
Common chickweed [22]; dose 6.3 g/a
  N: common chickweed, herbicidal effect: 4 (mortality of at least 70% and less than 90%)
beadstraw; dose 6.3 g/a
  O: beadstraw, herbicidal effect: 4 (mortality of at least 70% and less than 90%)
Giant foxtail [23]; dose 6.3 g/a
  E: giant foxtail, herbicidal effect: 4 (mortality of at least 70% and less than 90%)
Wild oat [24]; dose 6.3 g/a
  F: wild oat, herbicidal effect: 0 (mortality of less than 5% (almost ineffective))
Barnyardgrass [25]; dose 6.3 g/a
  A: barnyardgrass, herbicidal effect: 5 (mortality of 90% or above (nearly complete death))
Posumbu knotweed [26]; dose 6.3 g/a
  M: posumbu knotweed, herbicidal effect: 3 (mortality of at least 40% and less than 70%)
Common lambsquater [27]; dose 6.3 g/a
  L: common lambsquater, herbicidal effect: 4 (mortality of at least 70% and less than 90%)
Bulrush [28]
  B: bulrush, herbicidal effect (evaluation scale 0-5): 5 (mortality of 90% or above (nearly complete death))
Ducksalad [29]
  C: ducksalad, herbicidal effect (evaluation scale 0-5): 5 (mortality of 90% or above (nearly complete death))
Barnyardgrass [30]
  A: barnyardgrass, herbicidal effect (evaluation scale 0-5): 5 (mortality of 90% or above (nearly complete death))

## CCCOC(=O)N(c1ccccc1CN1COC(C)(C)CC1=O)S(=O)(=O)C(F)(F)F [II-24]
Bulrush [1]
  B: bulrush, herbicidal effect (evaluation scale 0-5): 5 (mortality of 90% or above (nearly complete death))
Ducksalad [2]
  C: ducksalad, herbicidal effect (evaluation scale 0-5): 5 (mortality of 90% or above (nearly complete death))
Barnyardgrass [3]
  A: barnyardgrass, herbicidal effect (evaluation scale 0-5): 5 (mortality of 90% or above (nearly complete death))
Velvetleaf [4]; dose 3.2 g/a
  I: velvetleaf, herbicidal effect (evaluation scale 0-5): 5 (mortality of 90% or above (nearly complete death))
Redroot pigweed [5]; dose 3.2 g/a
  K: redroot pigweed, herbicidal effect (evaluation scale 0-5): 0 (mortality of less than 5% (almost ineffective))
Large crabgrass [6]; dose 3.2 g/a
  D: large crabgrass, herbicidal effect (evaluation scale 0-5): 4 (mortality of at least 70% and less than 90%)
Italian ryegrass [7]; dose 3.2 g/a
  H: Italian ryegrass, herbicidal effect (evaluation scale 0-5): 5 (mortality of 90% or above (nearly complete death))
Water foxtail [8]; dose 3.2 g/a
  G: water foxtail, herbicidal effect (evaluation scale 0-5): 5 (mortality of 90% or above (nearly complete death))
Common ragweed [9]; dose 3.2 g/a
  J: common ragweed, herbicidal effect (evaluation scale 0-5): 4 (mortality of at least 70% and less than 90%)
Common chickweed [10]; dose 3.2 g/a
  N: common chickweed, herbicidal effect (evaluation scale 0-5): 3 (mortality of at least 40% and less than 70%)
Giant foxtail [11]; dose 3.2 g/a
  E: giant foxtail, herbicidal effect (evaluation scale 0-5): 3 (mortality of at least 40% and less than 70%)
Wild oat [12]; dose 3.2 g/a
  F: wild oat, herbicidal effect (evaluation scale 0-5): 0 (mortality of less than 5% (almost ineffective))
Barnyardgrass [13]; dose 3.2 g/a
  A: barnyardgrass, herbicidal effect (evaluation scale 0-5): 4 (mortality of at least 70% and less than 90%)
Posumbu knotweed [14]; dose 3.2 g/a
  M: posumbu knotweed, herbicidal effect (evaluation scale 0-5): 4 (mortality of at least 70% and less than 90%)
Velvetleaf [16]; dose 3.2 g/a
  I: velvetleaf, herbicidal effect: 4 (mortality of at least 70% and less than 90%)
Redroot pigweed [17]; dose 3.2 g/a
  K: redroot pigweed, herbicidal effect: 0 (mortality of less than 5% (almost ineffective))
Large crabgrass [18]; dose 3.2 g/a
  D: large crabgrass, herbicidal effect: 4 (mortality of at least 70% and less than 90%)
Italian ryegrass [19]; dose 3.2 g/a
  H: Italian ryegrass, herbicidal effect: 4 (mortality of at least 70% and less than 90%)
Water foxtail [20]; dose 3.2 g/a
  G: water foxtail, herbicidal effect: 5 (mortality of 90% or above (nearly complete death))
Common ragweed [21]; dose 3.2 g/a
  J: common ragweed, herbicidal effect: 3 (mortality of at least 40% and less than 70%)
Common chickweed [22]; dose 3.2 g/a
  N: common chickweed, herbicidal effect: 4 (mortality of at least 70% and less than 90%)
beadstraw; dose 3.2 g/a
  O: beadstraw, herbicidal effect: 5 (mortality of 90% or above (nearly complete death))
Giant foxtail [23]; dose 3.2 g/a
  E: giant foxtail, herbicidal effect: 4 (mortality of at least 70% and less than 90%)
Wild oat [24]; dose 3.2 g/a
  F: wild oat, herbicidal effect: 0 (mortality of less than 5% (almost ineffective))
Barnyardgrass [25]; dose 3.2 g/a
  A: barnyardgrass, herbicidal effect: 5 (mortality of 90% or above (nearly complete death))
Posumbu knotweed [26]; dose 3.2 g/a
  M: posumbu knotweed, herbicidal effect: 3 (mortality of at least 40% and less than 70%)
Common lambsquater [27]; dose 3.2 g/a
  L: common lambsquater, herbicidal effect: 0 (mortality of less than 5% (almost ineffective))
Transplanted rice
  a: transplanted rice, effect on crop (evaluation scale 0-5): 0 (mortality of less than 5% (almost ineffective))
Bulrush [28]
  B: bulrush, herbicidal effect (evaluation scale 0-5): 5 (mortality of 90% or above (nearly complete death))
Ducksalad [29]
  C: ducksalad, herbicidal effect (evaluation scale 0-5): 5 (mortality of 90% or above (nearly complete death))
Barnyardgrass [30]
  A: barnyardgrass, herbicidal effect (evaluation scale 0-5): 5 (mortality of 90% or above (nearly complete death))
